Source: PubChem BioAssay (NCI)
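These data come from cells grown in 96-well plates and exposed to compound for 48 hours at five concentrations. TGI denotes the concentration required for complete inhibition of growth.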

Key:
Experiment in all cases: NCI-60 cell line screen, 48 h
HCT-116 colon = test system: HCT-116 colon
HCC-2998 colon = test system: HCC-2998 colon
OVCAR-4 ovarian = test system: OVCAR-4 ovarian
U251 CNS = test system: U251 CNS
COLO 205 colon = test system: COLO 205 colon
SF-539 CNS = test system: SF-539 CNS
UACC-257 melanoma = test system: UACC-257 melanoma
NCI-H23 lung = test system: NCI-H23 lung
MDA-MB-435 = test system: MDA-MB-435
LOX IMVI melanoma = test system: LOX IMVI melanoma
TK-10 renal = test system: TK-10 renal
SK-MEL-5 melanoma = test system: SK-MEL-5 melanoma
NCI-H226 lung = test system: NCI-H226 lung
UACC-62 melanoma = test system: UACC-62 melanoma
T-47D breast = test system: T-47D breast
CCRF-CEM leukemia = test system: CCRF-CEM leukemia
A498 renal = test system: A498 renal

Row | Compound | TGI (HCT-116 colon) | TGI (HCC-2998 colon) | TGI (OVCAR-4 ovarian) | TGI (U251 CNS) | TGI (COLO 205 colon) | TGI (SF-539 CNS) | TGI (UACC-257 melanoma) | TGI (NCI-H23 lung) | TGI (MDA-MB-435) | TGI (LOX IMVI melanoma) | TGI (TK-10 renal) | TGI (SK-MEL-5 melanoma) | TGI (NCI-H226 lung) | TGI (UACC-62 melanoma) | TGI (T-47D breast) | TGI (CCRF-CEM leukemia) | TGI (A498 renal)
1 | CCN(CCCN(CC)C(=O)Nc1ccccc1)C(=O)Nc1ccccc1 | > 100 µM | > 100 µM | > 100 µM | > 100 µM | > 100 µM | > 100 µM | > 100 µM | > 100 µM | > 100 µM | > 100 µM | > 100 µM | > 100 µM | > 100 µM | > 100 µM | > 100 µM | > 100 µM | 
2 | c1ccc(-c2cs[s+]c2)cc1 | > 100 µM | > 100 µM | > 100 µM | > 100 µM | > 100 µM |  | > 100 µM | > 100 µM | > 100 µM | > 100 µM | > 100 µM | > 100 µM | > 100 µM | > 100 µM | > 100 µM | 83.1 µM | > 100 µM
3 | N#CCC(=O)c1cc(OCc2cc(OCc3ccc(Br)cc3)cc(OCc3ccc(Br)cc3)c2)cc(OCc2cc(OCc3ccc(Br)cc3)cc(OCc3ccc(Br)cc3)c2)c1 | > 100 µM | > 100 µM | > 100 µM | > 100 µM | > 100 µM |  | > 100 µM | > 100 µM | > 100 µM |  | > 100 µM | > 100 µM | > 100 µM | > 100 µM | > 100 µM |  | > 100 µM
4 | COc1cccc(Nc2nc(-c3cccs3)nc3ccc(Br)cc23)c1 | > 100 µM |  |  | > 100 µM | > 100 µM | > 100 µM | > 100 µM | > 100 µM | > 100 µM | > 100 µM | > 100 µM | > 100 µM | > 100 µM | > 100 µM | > 100 µM | > 100 µM | > 100 µM
5 | Cc1cc(C)nc(NC(=S)Nc2ccccc2Cl)c1 | > 100 µM |  | > 100 µM | > 100 µM | > 100 µM | > 100 µM | > 100 µM |  | > 100 µM | > 100 µM | > 100 µM | > 100 µM | > 100 µM | > 100 µM | > 100 µM | > 100 µM | > 100 µM
6 | O=C1CCCCC1=C(I)I | 30.9 µM | 29.5 µM | 24.5 µM | 30.2 µM | 28.8 µM | 36.6 µM |  |  | 46.8 µM |  |  | 33 µM | 42.7 µM | 33.9 µM | 28.7 µM | 73.3 µM | 35.5 µM
7 | Cc1cnc(/N=c2\sc(C)cn2-c2ncc(C)s2)s1 | > 100 µM | > 100 µM | > 100 µM | > 100 µM | > 100 µM | > 100 µM | > 100 µM | > 100 µM | > 100 µM | > 100 µM | > 100 µM | > 100 µM | > 100 µM | > 100 µM | > 100 µM | > 100 µM | 
8 | COc1ccc(Cc2c(N)[nH]c(=O)n(C)c2=O)cc1 | > 100 µM | > 100 µM | > 100 µM | > 100 µM | > 100 µM | > 100 µM | > 100 µM | > 100 µM | > 100 µM | > 100 µM | > 100 µM | > 100 µM | > 100 µM | > 100 µM | > 100 µM |  | > 100 µM
